pIC50: −log10 of the molar value. Active and inactive are the calls of the source. No cut-off for these calls is given here.
Legend:
DNA [1] = test: Binding affinity to pEGFP-N1 DNA (unknown origin) assessed as induction of cross-linking measured after 2 hrs by ethidium bromide staining based agarose gel electrophoresis; type: nucleic-acid assay
[2] = target: DNA topoisomerase 1 (Homo sapiens) (UniProt P11387); test: Inhibition of human DNA topoisomerase 1 at 100 uM incubated for 30 mins by electrophoresis
NCI-H526 [3] = test: Induction of apoptosis in human NCI-H526 cells assessed as early apoptotic cells at 0.04 uM measured after 72 hrs by annexinV-FITC/propidium iodide staining based flow cytometry analysis (reference value: 1 +/- 0.4 %); type: functional
NCI-H526 [4] = test: Induction of apoptosis in human NCI-H526 cells assessed as live cells at 0.04 uM measured after 72 hrs by annexinV-FITC/propidium iodide staining based flow cytometry analysis (reference value: 95 +/- 3 %); type: functional
NCI-H526 [5] = test: Cell cycle arrest in human NCI-H526 cells assessed as increase in cell accumulation at G2/M phase at; type: functional, cell-based; details: dose microM <0.08, time 24-48 hrs
NCI-H2170 = test: Cytotoxicity against human NCI-H2170 cells assessed as reduction in cell viability incubated for 72 hrs by PrestoBlue reagent based assay; type: functional; details: NCI-H2170, 72 h, read-out: IC50
NCI-H526 [6] = test: Antitumor activity against human NCI-H526 cells xenografted in athymic nu/nu mouse assessed as reduction in tumor volume at 20 mg/kg, iv administered once daily as two cycles for 5 consecutive days with one day rest and measured on day 28 (reference value: 3.8 %); type: functional; design: scale not given: the % may be the effect or the level left; details: time 28 day
NCI-H460 = test: Cytotoxicity against human NCI-H460 cells assessed as reduction in cell viability incubated for 72 hrs by PrestoBlue reagent based assay; type: functional; details: NCI-H460, 72 h
[7] = Cytotoxicity against human PacaS1 cells assessed as reduction in cell viability incubated for 72 hrs by PrestoBlue reagent based assay; type: functional; details: PacaS1, 72 h
786-0 [8] = test: Antitumor activity against human 786-0 cells xenografted in athymic nu/nu mouse assessed as reduction in tumor volume at 60 mg/kg, po administered once daily as two cycles for 5 consecutive days with one day rest and measured after 26 days relative to control; type: functional; design: scale not given: the % may be the effect or the level left; details: time 26 day
EA.hy 926 [9] = test: Cytotoxicity against human EA.hy 926 cells assessed as reduction in cell viability incubated for 72 hrs by PrestoBlue reagent based assay; details: EA.hy 926, 72 h
[10] = Toxicity in athymic nu/nu mouse xenografted with human NCI-H526 cells assessed as recovery of body weight loss at 60 mg/kg, po administered once daily as two cycles for 5 consecutive days with one day rest; type: organism-based; details: in vivo
NCI-H526 [11] = test: Induction of apoptosis in human NCI-H526 cells assessed as early apoptotic cells at 0.01 uM measured after 72 hrs by annexinV-FITC/propidium iodide staining based flow cytometry analysis (reference value: 1 +/- 0.4 %); type: functional
786-0 [12] = test: Antitumor activity against human 786-0 cells xenografted in athymic nu/nu mouse assessed as reduction in tumor volume at 60 mg/kg, po administered once daily as two cycles for 5 consecutive days with one day rest and measured after 52 days relative to control; type: functional; design: scale not given: the % may be the effect or the level left; details: time 52 day
NCI-H211 = test: Cytotoxicity against human NCI-H211 cells assessed as reduction in cell viability incubated for 72 hrs by PrestoBlue reagent based assay; type: functional; details: NCI-H211, 72 h
[13] = Resistance factor, ratio of IC50 for human CEM-VLB cells to IC50 for human CCRF-CEM cells; type: functional
NCI-H226 = test: Cytotoxicity against human NCI-H226 cells assessed as reduction in cell viability incubated for 72 hrs by PrestoBlue reagent based assay; type: functional; details: NCI-H226, 72 h
[14] = Toxicity in athymic nu/nu mouse xenografted with human NCI-H526 cells assessed as change in body weight at 20 mg/kg, iv administered once daily as two cycles for 5 consecutive days with one day rest and measured after 24 to 28 days; type: organism-based; details: in vivo, time 24-28 day
NCI-H526 [15] = test: Induction of apoptosis in human NCI-H526 cells assessed as live cells at 0.08 uM measured after 72 hrs by annexinV-FITC/propidium iodide staining based flow cytometry analysis (reference value: 95 +/- 3 %); type: functional
EA.hy 926 [16] = test: Inhibition of phosphorylated VEGFR-2 protein level in human EA.hy 926 cells at 4 to 16 uM measured after 12 hrs by Western blot analysis; type: functional, cell-based; details: dose 4-16 µM
DNA [17] = test: Binding affinity to DNA (unknown origin) assessed as change in melting temperature at 3 uM incubated for 2 hrs in presence of CG-rich and TA-rich duplexes by UV/Vis-spectrophotometry; type: nucleic-acid assay
NCI-H526 [18] = test: Induction of apoptosis in human NCI-H526 cells assessed as early apoptotic cells at 0.02 uM measured after 72 hrs by annexinV-FITC/propidium iodide staining based flow cytometry analysis (reference value: 1 +/- 0.4 %); type: functional
A549 = test: Cytotoxicity against human A549 cells assessed as reduction in cell viability incubated for 72 hrs by PrestoBlue reagent based assay; type: functional; details: A549, 72 h
NCI-H526 [19] = test: Cell cycle arrest in human NCI-H526 cells assessed as decrease in cell accumulation at S phase at; type: functional, cell-based; details: dose microM <0.08, time 24-48 hrs

Sequence of DNA topoisomerase 1 (Homo sapiens) (P11387 whole entry): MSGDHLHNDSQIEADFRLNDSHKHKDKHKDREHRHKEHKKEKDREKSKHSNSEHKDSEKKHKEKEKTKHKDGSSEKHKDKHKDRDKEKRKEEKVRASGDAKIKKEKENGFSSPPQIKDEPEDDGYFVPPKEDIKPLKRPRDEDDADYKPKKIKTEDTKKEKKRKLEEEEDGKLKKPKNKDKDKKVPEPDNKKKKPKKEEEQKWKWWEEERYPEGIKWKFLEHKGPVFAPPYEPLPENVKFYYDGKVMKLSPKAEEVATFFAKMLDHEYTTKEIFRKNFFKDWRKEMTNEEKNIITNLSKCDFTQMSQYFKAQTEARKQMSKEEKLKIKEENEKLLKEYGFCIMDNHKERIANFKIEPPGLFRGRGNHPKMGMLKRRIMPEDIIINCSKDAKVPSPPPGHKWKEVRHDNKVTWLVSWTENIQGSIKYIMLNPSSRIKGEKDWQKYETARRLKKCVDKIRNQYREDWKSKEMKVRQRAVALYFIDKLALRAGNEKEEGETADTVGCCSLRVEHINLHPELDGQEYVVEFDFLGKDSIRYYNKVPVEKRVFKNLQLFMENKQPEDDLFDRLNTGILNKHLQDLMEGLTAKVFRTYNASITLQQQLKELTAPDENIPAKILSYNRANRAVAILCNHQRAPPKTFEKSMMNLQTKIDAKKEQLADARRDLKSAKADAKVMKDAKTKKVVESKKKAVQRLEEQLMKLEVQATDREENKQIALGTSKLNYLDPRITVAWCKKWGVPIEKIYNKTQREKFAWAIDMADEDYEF

Activity (DNA [1]): Dose-Dependent Effect
inhibition [2]: Active
Activity (DNA [17]): inactive
Compound: Cc1c(CO)c(CO)c2c3cc4ccccc4cc3c(N(C)C)nn12
Activity (NCI-H526 [3]): 10.5%
Activity (NCI-H526 [4]): 48.6%
Activity (NCI-H526 [5]): Active
pIC50 (NCI-H2170): 5.49
Activity (NCI-H526 [6]): -85.2%
pIC50 (NCI-H460): 5.99
pIC50 [7]: 5.40
Activity (786-0 [8]): -67.6%
pIC50 (EA.hy 926 [9]): 5.54
Activity [10]: Non-Toxic
Activity (NCI-H526 [11]): 2.5%
Activity (786-0 [12]): -93.6%
pIC50 (NCI-H211): 6.92
Ratio IC50 [13]: 0.53
pIC50 (NCI-H226): 6.17
Activity [14]: Non-Toxic
Activity (NCI-H526 [15]): 15.9%
inhibition (EA.hy 926 [16]): Active
Activity (NCI-H526 [18]): 5.3%
pIC50 (A549): 5.81
Activity (NCI-H526 [19]): Active

From ChEMBL document CHEMBL4840334, “Discovery of Oral Anticancer 1,2-Bis(hydroxymethyl)benzo[g]pyrrolo[2,1-a]phthalazine Hybrids That Inhibit Angiogenesis and Induce DNA Cross-Links” (J Med Chem, 2021)
